In BigSolDB 2.1:

CC(=O)Nc1ccc(O)cc1
solubility (mole fraction)
Conditions	293.2 K	298.2 K	303.2 K	308.2 K	313.2 K
in acetonitrile	0.00682	0.00805	0.00935	0.0107	0.0118
in water	0.00164	0.00202	0.00229	0.00284	0.00313
